Test results taken from patent publication US20040209850A1, “Methods of treating pain and compositions for use therefor” (TheraQuest Biosciences, LLC, priority 2003, published 2004).

Experiments:
rat = assay: Tail-flick test: antinociception of albuterol, morphine and morphine plus albuterol (% MPE, A50); assay type: in vivo
Text: The tail flick test was first described by D'Amour and Smith (1941), and remains essentially unchanged in application. (See generally D'Amour, F. E. and Smith, D. L., “A method for determining loss of pain sensation”, J. Pharmacol. Exp. Therap., 72:74-79(1941); Dewey, D. L. and Harris, L. S., The Tail-flick test. In: S. Ehrenpreis and A. Neidle (Eds.), Methods in Narcotic Research, Marcel Dekker, Inc., New York, 1975, pp. 101-109; and Dubner, R. and Ren, K., “Assessing transient and persistent pain in animals.” In: P. D. Wall and R. Melzack (Eds.), Textbook of Pain, Churchill Livingstone, London, 1999, pp. 359-369). Quite simply, the tail of a rat or mouse is exposed to radiant heat, and the latency to withdraw is determined. The basal heat intensity is set so that naive rats withdraw their tails within 2 to 3 sec. A cut-off latency of 10 sec (i.e., 3 to 4 times basal control value) is commonly employed to prevent tissue damage. An alternative to using radiant heat is to dip the tail into a water bath maintained at a fixed temperature, usually in the moderately noxious range of about 52° C. or 55° C. One advantage of a water bath is that the temperature is kept constant.
The tail-flick test is considered to be very robust in that weak analgesic agents are not detected by this test. […] It is even possible to perform the tail-flick test in lightly anesthetized animals.
Data obtained from the rat tail-flick test conform to a graded dose-response curve. The raw tail withdrawal latencies are converted to a % MPE (% maximal possible effect) by the formula:
% MPE=100×(test latency−basal latency)/(cut-off−basal latency).
This formula constrains the data to fit between 0% MPE and 100% MPE. […] These calculations then allow for the determination of relative potencies of different drugs and allow for the isobolographic determination of possible synergistic effects. Instances where the test latency is less than the basal latency produces a negative % MPE, which is meaningless unless one is measuring hyperalgesia.
Absent any interaction, the dose-effect curves for morphine alone and in the presence of albuterol should be identical.
This manipulation allowed the construction of dose-effect curves and more importantly, the calculation of the A50 (dose required to produce a 50% effect) and the confidence intervals. The data were converted to % MPE based on the equation:
% MPE=(response−baseline)/(8.2−baseline)×100.
Baseline refers to the pre-treatment tail-flick latencies, and 8.2 represents the maximal effect. […] The A50 values and confidence intervals for each of the dose-effect curves were determined from linear regression analysis of the logdose-effect curves. Significant shifts in the dose-effect curves were indicated by Student's t-statistic applied to the A50 values obtained for morphine and morphine plus albuterol, and was performed with our custom-designed data analysis software.
The SEM values are approximate and are derived as a ratio of the SEM of the raw data to the respective mean and adjusted as a function of % MPE.

mouse = assay: Chemically-induced (acetic acid) abdominal constrictions in the mouse; assay type: in vivo; conditions: mean ± S.E.M.
Method: Albuterol or vehicle 1 was dosed intraperitoneally (−25 min), followed by a subcutaneous dose of indomethacin or vehicle 2 (−20 min), prior to acetic acid (0.7% v/v) administration (0 min).

CN1CC[C@]23c4c5ccc(O)c4O[C@H]2[C@@H](O)C=C[C@H]3[C@H]1C5 [Morphine]
A50 (95% confidence interval), dose required to produce a 50% effect (rat; 30 minutes after injection): 4.53 mg/kg | A50 (95% confidence interval), dose required to produce a 50% effect (rat; 30 minutes after injection, listed as Morphine alone): 4.53 (3.92 to 5.24) mg/kg | A50 (95% confidence interval), dose required to produce a 50% effect (rat; 60 minutes after injection): 9.94 mg/kg | A50 (95% confidence interval), dose required to produce a 50% effect (rat; 60 minutes after injection, listed as Morphine alone): 9.94 (9.84 to 10.04) mg/kg | dose-dependency of antinociception (FIG. 1) (rat; dose-effect curves as % MPE): demonstrated dose-dependent antinociception | antinociceptive effect (in words) (rat; morphine 0.3 mg/kg to 2.5 mg/kg): minimal effects | Antinociceptive effect (as % MPE) (rat; morphine alone 0.3125 mg/kg, 30 minutes): 25.86 ± 3.31 % MPE | Antinociceptive effect (as % MPE) (rat; morphine alone 0.3125 mg/kg, 60 minutes): 24.14 ± 1.27 % MPE | Antinociceptive effect (as % MPE) (rat; morphine alone 0.625 mg/kg, 30 minutes): 22.41 ± 1.82 % MPE | Antinociceptive effect (as % MPE) (rat; morphine alone 0.625 mg/kg, 60 minutes): 20.69 ± 1.72 % MPE | Antinociceptive effect (as % MPE) (rat; morphine alone 1.25 mg/kg, 30 minutes): 33.33 ± 2.27 % MPE | Antinociceptive effect (as % MPE) (rat; morphine alone 1.25 mg/kg, 60 minutes): 19.3 ± 2.14 % MPE | Antinociceptive effect (as % MPE) (rat; morphine alone 2.5 mg/kg, 30 minutes): 28.57 ± 2.04 % MPE | Antinociceptive effect (as % MPE) (rat; morphine alone 2.5 mg/kg, 60 minutes): 21.43 ± 1.69 % MPE | Antinociceptive effect (as % MPE) (rat; morphine alone 5 mg/kg, 30 minutes): 44.07 ± 3.6 % MPE | Antinociceptive effect (as % MPE) (rat; morphine alone 5 mg/kg, 60 minutes): 13.56 ± 2.19 % MPE | Antinociceptive effect (as % MPE) (rat; morphine alone 10 mg/kg, 30 minutes): 91.07 ± 14.19 % MPE | Antinociceptive effect (as % MPE) (rat; morphine alone 10 mg/kg, 60 minutes): 50 ± 9.26 % MPE

COc1ccc2c(c1)c(CC(=O)O)c(C)n2C(=O)c1ccc(Cl)cc1 [Indomethacin]
Number of Abdominal Constrictions Exhibited in Time Period (min) Post Acetic Acid (mouse; indomethacin 0.1 mg/kg s.c., 5-10 min): 14.3 ± 2.6 | Number of Abdominal Constrictions Exhibited in Time Period (min) Post Acetic Acid (mouse; indomethacin 0.1 mg/kg s.c., 5-15 min): 23.6 ± 3.7 | Number of Abdominal Constrictions Exhibited in Time Period (min) Post Acetic Acid (mouse; indomethacin 1 mg/kg s.c., 5-10 min): 7.5 ± 2.0 | Number of Abdominal Constrictions Exhibited in Time Period (min) Post Acetic Acid (mouse; indomethacin 1 mg/kg s.c., 5-15 min): 14.5 ± 2.9 | Number of Abdominal Constrictions Exhibited in Time Period (min) Post Acetic Acid (mouse; indomethacin 3 mg/kg s.c., 5-10 min): 6.8 ± 1.7 | Number of Abdominal Constrictions Exhibited in Time Period (min) Post Acetic Acid (mouse; indomethacin 3 mg/kg s.c., 5-15 min): 12.2 ± 3.1 | Number of Abdominal Constrictions Exhibited in Time Period (min) Post Acetic Acid (mouse; indomethacin 5 mg/kg s.c., 5-10 min): 8.3 ± 2.0 | Number of Abdominal Constrictions Exhibited in Time Period (min) Post Acetic Acid (mouse; indomethacin 5 mg/kg s.c., 5-15 min): 14.1 ± 3.4 | Number of Abdominal Constrictions Exhibited in Time Period (min) Post Acetic Acid (mouse; indomethacin 10 mg/kg s.c., 5-10 min): 6.8 ± 1.7 | Number of Abdominal Constrictions Exhibited in Time Period (min) Post Acetic Acid (mouse; indomethacin 10 mg/kg s.c., 5-15 min): 11.9 ± 2.9 | Number of Abdominal Constrictions Exhibited in Time Period (min) Post Acetic Acid (mouse; indomethacin 30 mg/kg s.c., 5-10 min): 10.5 ± 2.3 | Number of Abdominal Constrictions Exhibited in Time Period (min) Post Acetic Acid (mouse; indomethacin 30 mg/kg s.c., 5-15 min): 17.6 ± 3.2 | Number of Abdominal Constrictions Exhibited in Time Period (min) Post Acetic Acid (mouse; indomethacin 50 mg/kg s.c., 5-10 min): 1.4 ± 0.6 | Number of Abdominal Constrictions Exhibited in Time Period (min) Post Acetic Acid (mouse; indomethacin 50 mg/kg s.c., 5-15 min): 4.5 ± 1.3
